Reference: ChEMBL document CHEMBL5154738, “Design, synthesis and structural-activity relationship studies of phanginin A derivatives for regulating SIK1-cAMP/CREB signaling to suppress hepatic gluconeogenesis” (Eur J Med Chem, 2022)

What was measured:
[1] = Inhibition of gluconeogenesis in C57BL/6J mouse primary hepatocytes assessed as inhibition of glucagon-stimulated glucose production at 5 uM preincubated for 1.5 hrs followed by lactate and pyruvate addition and later stimulated with glucagon for 4 hrs; assay type: functional; conditions: Hepatocyte, time 5.5 hrs
[2] = Inhibition of gluconeogenesis in C57BL/6J mouse primary hepatocytes assessed as inhibition of glucagon-stimulated glucose production at 10 uM preincubated for 1.5 hrs followed by lactate and pyruvate addition and later stimulated with glucagon for 4 hrs; assay type: functional; conditions: Hepatocyte, time 5.5 hrs
[3] = Cytotoxicity against C57BL/6J mouse primary hepatocytes assessed as cell viability at 200 uM incubated for 24 hrs by MTT assay relative to control; assay type: toxicity, cell-based, Hepatocyte; conditions: read-out: Activity
[4] = Cytotoxicity against C57BL/6J mouse primary hepatocytes assessed as cell viability at 20 uM incubated for 24 hrs by MTT assay relative to control; assay type: toxicity, cell-based, Hepatocyte; conditions: read-out: Activity
[5] = Cytotoxicity against C57BL/6J mouse primary hepatocytes assessed as cell viability at 10 uM incubated for 24 hrs by MTT assay relative to control; assay type: toxicity, cell-based, Hepatocyte; conditions: read-out: Activity
[6] = Cytotoxicity against C57BL/6J mouse primary hepatocytes assessed as cell viability at 50 uM incubated for 24 hrs by MTT assay relative to control; assay type: toxicity, cell-based, Hepatocyte; conditions: read-out: Activity
[7] = Inhibition of gluconeogenesis in C57BL/6J mouse primary hepatocytes assessed as inhibition of glucagon-stimulated glucose production at 2.5 uM preincubated for 1.5 hrs followed by lactate and pyruvate addition and later stimulated with glucagon for 4 hrs; assay type: functional; conditions: Hepatocyte, time 5.5 hrs
[8] = Cytotoxicity against C57BL/6J mouse primary hepatocytes assessed as cell viability at 100 uM incubated for 24 hrs by MTT assay relative to control; assay type: toxicity, cell-based, Hepatocyte; conditions: read-out: Activity
[9] = molecular target: Serine/threonine-protein kinase SIK1 (Mus musculus) (UniProt Q60670); assay: Activation of SIK1 in C57BL/6J mouse primary hepatocytes assessed as increase in SIK1 phosphorylation at Thr182 residue measured after 2 hrs by western blot analysis; assay type: cell-based; conditions: Primary hepatocyte, filed as activator, dose 2.5-10 µM, DDE = dose-dependent effect
Chain of Serine/threonine-protein kinase SIK1 (Mus musculus) (Q60670 whole entry): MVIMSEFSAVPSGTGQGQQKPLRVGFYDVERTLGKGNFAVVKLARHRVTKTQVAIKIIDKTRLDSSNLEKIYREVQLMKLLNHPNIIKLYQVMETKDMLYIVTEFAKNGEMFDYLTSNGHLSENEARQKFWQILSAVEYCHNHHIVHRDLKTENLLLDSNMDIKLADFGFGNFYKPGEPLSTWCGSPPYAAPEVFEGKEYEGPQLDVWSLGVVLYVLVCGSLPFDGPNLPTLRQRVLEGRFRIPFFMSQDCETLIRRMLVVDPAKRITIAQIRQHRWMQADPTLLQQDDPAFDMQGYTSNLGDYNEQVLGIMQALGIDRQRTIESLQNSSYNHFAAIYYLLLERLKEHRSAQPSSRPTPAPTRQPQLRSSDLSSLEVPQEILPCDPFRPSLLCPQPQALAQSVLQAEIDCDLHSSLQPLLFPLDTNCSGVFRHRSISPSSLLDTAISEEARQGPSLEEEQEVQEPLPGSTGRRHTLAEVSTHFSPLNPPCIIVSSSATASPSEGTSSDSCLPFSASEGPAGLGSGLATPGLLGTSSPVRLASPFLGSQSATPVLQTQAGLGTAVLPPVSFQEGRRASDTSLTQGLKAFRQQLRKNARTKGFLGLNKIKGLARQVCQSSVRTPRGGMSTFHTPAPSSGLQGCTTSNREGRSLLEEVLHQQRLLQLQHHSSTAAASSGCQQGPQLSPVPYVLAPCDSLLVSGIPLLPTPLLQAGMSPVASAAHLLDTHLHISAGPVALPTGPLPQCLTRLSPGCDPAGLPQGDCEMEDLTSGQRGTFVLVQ

| Structure (SMILES) | inhibition at 5 µM [1] [%] | inhibition at 10 µM [2] [%] | viability at 24 h, 200 µM [3] [%] | viability at 24 h, 20 µM [4] [%] | viability at 24 h, 10 µM [5] [%] | viability at 24 h, 50 µM [6] [%] | inhibition at 2.5 µM [7] [%] | viability at 24 h, 100 µM [8] [%] | Activity [9] |
| --- | --- | --- | --- | --- | --- | --- | --- | --- | --- |
| CC(=O)OCCO[C@@H]1OC[C@@]2(CO)CCCC13[C@H]2CC[C@H]1[C@@H](C)c2ccoc2C[C@@H]13 | 54.4 | 77.3 | 14.1 | 84.1 | 81.7 | 77.7 | 25.1 | 79.9 |  |
| COC(=O)[C@]12CCC[C@]3(COC1)[C@H]1C[C@H]4OCC[C@H]4[C@H](C)[C@@H]1CC[C@@H]23 |  | 36.3 |  |  |  |  |  |  |  |
| CCNC(=O)[C@@]12CCCC3([C@H](OCCO)OC1)[C@H]2CC[C@H]1[C@@H](C)c2ccoc2C[C@@H]13 | 52.8 | 66.1 | 47.5 | 84.1 | 84.2 | 90 | 21.8 | 73.4 |  |
| COC(=O)[C@@]12CCC[C@]3(C(=O)OC1)[C@H]1Cc4occc4[C@H](C)[C@@H]1CC[C@@H]23 |  | 41.2 |  |  |  |  |  |  |  |
| COC(=O)[C@@]12CCCC3([C@H](OCCO)OC1)[C@H]2CC[C@H]1[C@@H](C)C2=CC(=O)O[C@]2(O)C[C@@H]13 |  | -12.3 |  |  |  |  |  |  |  |
| COC(=O)[C@@]12CCCC3([C@H](OCCCCCO)OC1)[C@H]2CC[C@H]1[C@@H](C)c2ccoc2C[C@@H]13 | 82.7 | 89.2 | 18.7 | 33.3 | 70.1 | 17.2 | 32.2 | 19.3 |  |
| COC(=O)[C@]12CCCC3([C@H]1CC[C@H]1[C@@H](C)c4ccoc4C[C@@H]13)[C@H](SCCO)OC2 | 44.4 | 67.3 | 9.2 | 97.9 | 105 | 74.1 | 13.1 | 10.2 |  |
| COC(=O)[C@@]12CCCC3([C@H](OCCO)OC1)[C@H]2CC[C@H]1[C@@H](C)[C@@H]2CCO[C@@H]2C[C@@H]13 |  | 15.9 |  |  |  |  |  |  |  |
| CC(=O)OC[C@@]12CCCC3([C@H](OCCO)OC1)[C@H]2CC[C@H]1[C@@H](C)c2ccoc2C[C@@H]13 | 32.1 | 82.7 | 14.2 | 78.1 | 83.2 | 85 | -2.1 | 92.4 |  |
| COC(=O)[C@@]12CCCC3([C@H](OCCCCO)OC1)[C@H]2CC[C@H]1[C@@H](C)c2ccoc2C[C@@H]13 | 95.8 | 92.7 | 17.6 | 27.5 | 54 | 19.8 | 47 | 18.7 |  |
| COC(=O)[C@@]12CCCC3([C@H](OCCCO)OC1)[C@H]2CC[C@H]1[C@@H](C)c2ccoc2C[C@@H]13 | 81.8 | 97.5 | 9.9 | 20.6 | 49.7 | 14.1 | 32.7 | 12 |  |
| CCCNC(=O)[C@@]12CCCC3([C@H](OCCO)OC1)[C@H]2CC[C@H]1[C@@H](C)c2ccoc2C[C@@H]13 | 45 | 62.1 | 27.5 | 77.5 | 84.3 | 70.5 | 21.2 | 57.4 |  |
| C[C@H]1c2ccoc2C[C@H]2[C@H]1CC[C@@H]1C23CCC[C@]1(CO)CO[C@H]3OCCO | 69.4 | 71.1 | 13.2 | 69.6 | 74.8 | 63.9 | 41.4 | 42.2 |  |
| COC(=O)[C@@]12CCCC3([C@H](OCCOCCO)OC1)[C@H]2CC[C@H]1[C@@H](C)c2ccoc2C[C@@H]13 | 93.3 | 95.6 | 7.9 | 17.4 | 28.3 | 12 | 67.3 | 10.6 | Dde |
| CNC(=O)[C@@]12CCCC3([C@H](OCCO)OC1)[C@H]2CC[C@H]1[C@@H](C)c2ccoc2C[C@@H]13 | 34.2 | 56.6 | 76.3 | 84.7 | 82.9 | 85.8 | 9.6 | 82.6 |  |
| COC(=O)[C@@]12CCCC3([C@H](OCCOCCOCCO)OC1)[C@H]2CC[C@H]1[C@@H](C)c2ccoc2C[C@@H]13 | 97.4 | 97.1 | 8.1 | 23.4 | 40.5 | 12.1 | 47.2 | 10.3 |  |
| C[C@H]1c2ccoc2C[C@H]2[C@H]1CC[C@@H]1C23CCC[C@]1(C(=O)O)CO[C@H]3OCCO |  | 24.3 |  |  |  |  |  |  |  |
| COC(=O)[C@@]12CCCC3([C@H](OC)OC1)[C@H]2CC[C@H]1[C@@H](C)c2ccoc2C[C@@H]13 |  | 18.8 |  |  |  |  |  |  |  |
| CCCCO[C@@H]1OC[C@@]2(C(=O)OC)CCCC13[C@H]2CC[C@H]1[C@@H](C)c2ccoc2C[C@@H]13 |  | 36.2 |  |  |  |  |  |  |  |
| COC(=O)[C@@]12CCCC3([C@H](O)OC1)[C@H]2CC[C@H]1[C@@H](C)[C@@H]2CCO[C@@H]2C[C@@H]13 |  | 41.1 |  |  |  |  |  |  |  |
| COC(=O)[C@@]12CCCC3([C@H](OCCCCCCO)OC1)[C@H]2CC[C@H]1[C@@H](C)c2ccoc2C[C@@H]13 | 67.2 | 81.8 | 11.4 | 81.5 | 89.3 | 28.6 | 33.5 | 11.3 |  |
| CCO[C@@H]1OC[C@@]2(C(=O)OC)CCCC13[C@H]2CC[C@H]1[C@@H](C)c2ccoc2C[C@@H]13 |  | 24.9 |  |  |  |  |  |  |  |
| COC(=O)[C@@]12CCCC3([C@H](OCCOCCOCCOCCO)OC1)[C@H]2CC[C@H]1[C@@H](C)c2ccoc2C[C@@H]13 | 87.8 | 111 | 7.9 | 25.4 | 48.9 | 12.9 | 63.1 | 11 | Dde |
| COC(=O)[C@@]12CCC[C@]3(COC1)[C@H]1Cc4occc4[C@H](C)[C@@H]1CC[C@@H]23 |  | 52 |  |  |  |  |  |  |  |
